We go through two molecules from patent publication US11083197B2, “Herbicidal composition comprising chromone derivatives and a method for weed control” (INVESTIGACIONES BIOLÓGICAS EN AGROQUÍMICOS ROSARIO S.A., priority 2015, dated 2021).

The subject of one data set is lettuce (Lactuca sativa). Nature of the data set: Germination / dose-response bioassay with lettuce. The conditions noted are these: for Phytotoxicity at day 7, Lettuce: 1 mM, 24-well plates, rating scale of 0 to 5; for IC50 / inhibition at 1000 µg/mL: lettuce; for IC50: 7 days; for inhibition at 1000 µg/mL: 1 mg/mL, day 7; for lettuce germination: fractions at 1 mg/mL. The format is in vivo. As to the method: DCM extract of flowers of A. visnaga (1.6 g) was divided in two 800 mg halves and each one was subjected to column chromatography using an Isolera One system (Biotage), equipped with UV detector (302 and 365 nm) and automatic fraction collector. Separation was performed by normal-phase chromatography column using a SNAP Cartridge KP-Sil (37×157 mm, 50 μm irregular silica, 100 g, Biotage) and a pre-packaged SNAP Samplet Cartridge KP-Sil (37×17 mm, Biotage). A full gradient of hexane:ethyl acetate was used for elution, from 100:0 to 0:100 over 3000 ml. Flow was 40 ml/min and 25 ml fractions were collected. Equal fractions were combined based on similarities on their TLC and chromatogram profiles providing nineteen fractions named I to XIX. All fractions were evaluated for their phytotoxicity on germination bioassay of lettuce (L. sativa) and creeping bentgrass (A. stolonifera).
A filter paper and 5 lettuce or 10 mg of creeping bentgrass seeds were placed in each well of a 24-well plate. Stock solutions (10×) of test compounds were prepared in acetone. 180 μl of distilled water were added to each well together with 20 μl of stock solution or acetone in solvent control. Final concentration of acetone was 10% v/v. Plates were sealed with Parafilm, and incubated at 26° C. in a growth chamber set at 173 μmol m^−2 s^−1 continuous photosynthetically active radiation. Phytotoxic activity was qualitatively evaluated by visually comparing germination in each well with solvent control at 7 days. A qualitative estimation of phytotoxicity was obtained by using a rating scale of 0 to 5, where 0 was no effect, and 5 was no germination of seeds. This procedure was also used for testing the phytotoxicity of pure compounds on ryegrass. On this experiment 12-well plates were used. 10 seeds were placed per well and final volume was 300 μl in each one. During dose-response bioassays used for IC50 determination, germination percentage and length of plants were measured at 7 days in order to determine the concentration required for 50% germination and growth inhibition (IC50). All experiments were done in triplicate.
Using method described in Example 1, compounds of Formula III and IV above were tested against lettuce and ryegrass.
The percentage of germination and length of plants were determined at 7 days. Data represents means of three replicates±SD. The IC50 values, for both germination and growth inhibition by compounds III and IV on lettuce and ryegrass, were obtained from estimated parameters in the regression curves.
Statistical Analysis. Data from dose-response experiments were analyzed by a log-logistic model^37-38 using the dose-response curve module^39 of R software version 2.2.1.^40 Concentrations required for 50% germination or growth inhibition relative to control (IC50 values) were obtained from estimated parameters in the regression curves. The standard error (SE) of each estimation is provided. Data from phytotoxicity bioassays in the laboratory and greenhouse, ROS and cell death quantifications were analyzed by ANOVA using the InfoStat statistical software version 2015,^41 and Scheffe's test was employed to compare the means at α=0.05.

The subject of the next data set is ryegrass. Nature of the data set: Postemergence bioassay with ryegrass in Petri dishes. The format is in vivo. Conditions: Lolium multiflorum, post-emergence; 500 μM; day 6 (4 days after application); read-out: Growth inhibition (%) as percentage of control. As to the method: Plant length was measured at day 6 (4 days after application of the compounds)
Plant length's axis starts in 5 mm because seeds were pre-incubated in water, so all seedlings were around 5 mm long at the beginning of the treatment.

The test system of data set [1] is cucumber cotyledon disks. The data set is described as follows: Electrolyte leakage assay. The format is cell-based. Conditions: for destabilization of cell membranes, electrolyte leakage / electrolyte leakage versus boiled positive control: 100 and 300 μM; for electrolyte leakage versus boiled positive control: 16 h dark plus 26 h of high light intensity. How it is done: The effects of pure furanochromones, compounds of formulas III and IV (Sigma Aldrich), on membrane stability were studied as described by Dayan and Watson.^23 Cucumber cotyledon disks were exposed to each furanochromone at 100 and 300 μM. Control tissues were exposed to the same solvent as treated tissues but without the compounds. Conductivity measurements were carried out at the beginning of the dark incubation period, a second measurement was made after 16 h, at which time the samples were placed under high light intensity, and final measurements were made after 8 and 26 h of light exposure. Each experiment consisted of three replicates. Maximum conductivity was measured by boiling three samples of each treatment for 20 min. To study if electrolyte leakage caused by compounds of formulas III and IV was light-dependent, two sets of Petri plates were prepared with cucumber cotyledon disks exposed to test compounds and control in both. One set was treated as described before (dark 16 h/light 26 h) while the other one was kept in darkness for 42 h. Conductivity measurements were done at the indicated times.

The test system of data set [2] is cucumber cotyledon disks. The data set is described as follows: Photosynthetic efficiency (chlorophyll fluorescence, ETR). The format is cell-based. The conditions noted are these: after 24 h of incubation in the light (42 h total). How it is done: The effects of pure compounds of formulas III and IV were evaluated by chlorophyll fluorescence measurements according to Dayan and Zaccaro.^24 Cucumber cotyledon disks were exposed to different dilutions of each furanochromone (10, 30, 100 and 300 μM). Control tissues were exposed to the same solvent as treated tissues but without the test compounds. The cotyledon disks were incubated in darkness for 18 h before exposure to light for 24 h. Photosynthetic quantum yield and electron transport rate (ETR) were measured. ETR values were expressed as percent of the ETR average values observed in control treatments. A time-course experiment was performed by measuring induced fluorescence of cotyledon disks after treatment at 3 h in darkness (start), after 18 h in darkness, after which the samples were placed in the light, and further measurements were made after 6 and 24 h of light exposure. The results of this experiment are shown in FIG. 16 (A: khellin [compound of formula III] and B: visnagin [compound of formula IV]). Three replicates were performed for each experiment. Bars represent, from left to right in each grouping, start, 18 h dark, 6 h light, and 24 h light.

Data set [3] has as its system crabgrass (D. sanguinalis), barnyardgrass (E. crus-galli) and velvetleaf (A. theophrasti). The data set is described as follows: Greenhouse postemergence spray, 4.0 kg ai/ha. The format is in vivo. How it is done:
Aqueous solution containing commercial standard of pure compound of Formula IV was prepared and sprayed on crabgrass (D. sanguinalis), barnyardgrass (E. crus-galli) and velvetleaf (A. theophrasti). Plants were sprayed at 2-3 true leaf stage (13-16-day-old plants). For better dissolution of compounds in water AGRIDEX (1% v/v) and acetone (1% v/v) were added to spray solutions. Final rate of compounds was 4.0 kg ai ha^−1. Plant height and dry weight were measured at 11 days after spray. Results were compared with the bio herbicide pelargonic acid at 4.0 kg ai ha^−1.

For data set [4], the system named is green alga Chlamydomonas reinhardtii. Conditions: equimolar concentrations and equal UV-A doses; cited from earlier work.
Setting [5] is: Lactuca sativa, 168 h, read-out: IC50(μM) ± SE to inhibit germination.
Where [6] appears, read: Lactuca sativa, 168 h, read-out: IC50(μM) ± SE to inhibit growth.

Like-named read-outs stand apart in the source and are kept apart here.

For `COc1c2occc2c(OC)c2c(=O)cc(C)oc12` [Formula III, 4,9-dimethoxy-7-methyl-5H-furo[3,2-g]chromen-5-one], the “Phytotoxicity at day 7, Lettuce” value in the data set on lettuce (Lactuca sativa) stood at 3. Moreover, the IC50 in the data set with lettuce (Lactuca sativa) (setting [5]) came to 700 µM; in the data set with lettuce (Lactuca sativa) (setting [6]), 110 µM; in the data set with lettuce (Lactuca sativa) (read-out: IC50(μM) ± SE to inhibit germination) it was 701 ± 93 µM. The same molecule displayed an inhibition at 1000 µg/mL in the data set with lettuce (Lactuca sativa) (Lactuca sativa, 168 h) of 100%. For the same molecule, the lettuce germination entry with lettuce (Lactuca sativa) is on record as “completely inhibited”. In addition, the inhibition at 500 µM in the data set with ryegrass was 25%. In the data set on cucumber cotyledon disks [1], the “destabilization of cell membranes, electrolyte leakage” value was “significant electrolyte leakage”. In the data set with cucumber cotyledon disks [1], the “electrolyte leakage versus boiled positive control” value is reported as “comparable to the positive control”. Also, the results for the “reduction of electron transport rate (ETR)” value with cucumber cotyledon disks [2] (100 μM) and with cucumber cotyledon disks [2] (300 μM) were about 35% and about 50%, respectively.
On to `COc1c2ccoc2cc2oc(C)cc(=O)c12` [Formula IV, 4-methoxy-7-methyl-5H-furo[3,2-g]chromen-5-one], for which, in the data set with lettuce (Lactuca sativa), the “Phytotoxicity at day 7, Lettuce” value is 3. Also, the figures for the IC50 in the data set with lettuce (Lactuca sativa) (setting [5]), with lettuce (Lactuca sativa) (setting [6]) and in the data set on lettuce (Lactuca sativa) (read-out: IC50(μM) ± SE to inhibit growth) were 740 µM, 170 µM and 175 ± 16 µM, respectively. Besides, the inhibition at 1000 µg/mL in the data set on lettuce (Lactuca sativa) (Lactuca sativa, 168 h) turned out to be 100%. In the data set with lettuce (Lactuca sativa), the lettuce germination entry was “completely inhibited”. Moreover, in the data set with ryegrass, the inhibition at 500 µM was 66%. The “kind of postemergence herbicidal activity” value in data set [3] is “by contact and non-selective”. For the same molecule, in data set [3] (11 days after spray), the “height and biomass of sprayed weeds versus control plants” value is “significantly smaller”. In addition, the “symptoms on treated plants” value in data set [3] (11 days after treatment) is “necrotic lesions and some abnormally formed leaves”. In addition, the electrolyte leakage result with cucumber cotyledon disks [1] (100 μM, after 8 h in the light) is “caused electrolyte leakage”. In addition, the “destabilization of cell membranes, electrolyte leakage” value with cucumber cotyledon disks [1] is given as “significant electrolyte leakage”. In addition, in the data set on cucumber cotyledon disks [1], the “electrolyte leakage versus boiled positive control” value was “comparable to the positive control”. Also, the entries for the “reduction of electron transport rate (ETR)” value in the data set with cucumber cotyledon disks [2] (100 μM) and in the data set with cucumber cotyledon disks [2] (300 μM) were about 35% and about 50%, respectively. For the same molecule, the “phototoxicity and photomutagenicity compared with bergapten” value in data set [4] is “much less phototoxic and photomutagenic than bergapten”.

By IC50 is commonly meant the concentration at which inhibition is half-maximal. Usually inhibition stands for how much of the control response was suppressed.
